How the values were obtained:
[1] = tested on: wild type L. donovani AG83 promastigotes; assay: DNA fragmentation assay (cell death detection ELISA), wild type; assay type: cell-based, Leishmania donovani; conditions: 20 µM
Protocol: Leishmanial cells were cultured in 24-well plates and treated with 20 µM of DIM, DPDIM, DMDIM and DMODIM for different times. Samples were collected at requisite time points and subjected to measurement of DNA fragmentations. Cytoplasmic histone-associated DNA fragments (mononucleosome and oligonucleosomes) formed during apoptosis were detected using a cell death detection ELISA kit (Roche Biochemicals) by spectrophotometric measurement of microtiter plates in a Thermo MULTISKAN EX plate reader at 405 nm. The relative percentages (with respect to samples treated with micrococcal nuclease and normalized to percentage values) were plotted as units of time or drug concentrations as described previously.
The internucleosomal DNA digestion by an endogenous nuclease (genomic DNA fragmentation) is considered as a hallmark of apoptotic cell death. […] To investigate whether these derivatives also do the same, we performed the DNA fragmentation assay with wild type L. donovani AG83 promastigotes and DIM resistant parasites (Fig. 4) by ELISA as described in Materials and Methods. […] DNA fragmentation increased to 85%, 89%, 81% and 71% at 8 h of treatment in wild type parasites. The DIM resistant parasites (LdDR50) have much less effect in DNA fragmentation (13% at 6 h and 17% at 8 h) when treated with 20 µM DIM. On the other hand the extents of DNA fragmentations were 63%, 51% and 40% at 6 h treatment with DPDIM, DMDIM and DMODIM respectively. The extent of fragmentation increased to 82%, 74% and 65% after treatment for 8 h with the drugs as mentioned above.
Figure 4 DIM derivatives-induced fragmentation of genomic DNA in wild type and DIM resistant parasites. Relative percentage of DNA fragmentation measured by cell death detection ELISA kit in L. donovani promastigotes treated with DIM, DPDIM, DMDIM and DMODIM. The experiments were performed three times and representative data from one of these experiments as means ± SD.

[2] = tested on: DIM resistant L. donovani promastigotes (DR50); assay: Cell viability assay, DIM resistant promastigotes; assay type: cell-based; conditions: Leishmania donovani, 12 h, read-out: growth inhibited
Protocol: L. donovani strain AG83 and DIM resistant parasite DR50 promastigotes were grown at 22°C in M199 liquid media supplemented with 10% FBS as described. Axenic amastigotes were cultured in modified M199 medium (pH 5.3) supplemented with 10 mM sodium succinate, 40 mM HEPES and 25% FCS and maintained at 37°C with 5% CO2.The effect of drugs on the viability of Leishmania parasites was determined by direct microscopic counting using light microscope (40× objective) in a haemocytometer. The cells at the exponential phase were collected and transferred into 24-well plate (3.5×10^6 cells per well). The cells were then incubated for 12 h in the presence of various concentrations of DIM, DPDIM, DMDIM and DMODIM (1, 5, 10, 20 and 50 µM). For other experiments, 10^4 cells were taken and grown in presence of the respective derivatives for a period of 30 days. For each 5 day interval, a small amount of aliquots were taken out. After incubation the cells were centrifuged and cell pellet was washed with PBS (1×) twice and finally suspended in 1 ml PBS (1×). Fifty µl of aliquot was taken, mixed with 0.4% trypan blue solution and incubated for 3 min at 22°C. One drop of the mixture was transferred to haemocytometer and the clear (live) and blue (dead) cells were counted. The total number of viable cells in aliquot was calculated by multiplying the total number of viable cells by 2 (the dilution factor for trypan blue). To obtain the total number of cells in the aliquot, total number of viable and nonviable cells were added up and multiplied by 2. Percentages of viable cells were calculated using the formula: [drawing 1]
The effects of different derivatives of DIM on cell proliferation were tested by incubating wild type and DIM resistant L. donovani promastigotes (3.5×10^6 cells/ml) with the drugs. […] The number of live promastigotes was measured by differential staining of live and dead cells using light microscope under 40× objective (Fig. 2). […]
Figure 2 Effect of DIM-derivatives on Leishmania parasites. Growth of L. donovani AG83 promastigotes (A) and DIM resistant promastigotes (B) were monitored in presence of increasing concentrations (1, 5, 10, 20 and 50 µM) of DIM, DPDIM, DMDIM and DMODIM for 12 h. […] Change in IC50 values after a prolong exposure to DIM derivatives (C) has been assessed as described in Materials and Methods. After every 5 day a small aliquot was taken out and number of viable promastigotes was counted for each concentration. IC50 values have been determined from them using Graph Pad Prsim ver 5.0 software and a graphical plot was generated over time. Growth of the parasites treated with the compounds was expressed as percentage of the viable promastigotes compared with that of control. […]

SMILES	fragmentation of DNA ([1]; 6 h) [%]	fragmentation of DNA ([1]; 8 h) [%]	inhibition at 20 µM [2] [%]
c1ccc2c(Cc3c[nH]c4ccccc34)c[nH]c2c1 [DIM, 3, 3′-diindolyl methane, reference compound]	73	85	20
Cc1[nH]c2ccccc2c1Cc1c(C)[nH]c2ccccc12 [DMDIM, 2,2′-dimethyl 3,3′-diindolyl methane]	60	81	85
COc1ccc2[nH]cc(Cc3c[nH]c4ccc(OC)cc34)c2c1 [DMODIM, 5,5′-dimethoxy 3,3′-diindolyl methane]	49	71	65
c1ccc(-c2[nH]c3ccccc3c2Cc2c(-c3ccccc3)[nH]c3ccccc23)cc1 [DPDIM, 2,2′-diphenyl 3,3′-diindolyl methane]	79	89	90
